Source: patent publication US5821061A, “Method and reagent for detecting a ligand in a sample” (Toyo Boseki Kabushiki Kaisha, priority 1995, dated 1998)

Columns and labels:
[1] = test system: alkaline phosphatase of Bacillus badius TE3592; experiment: Substrate specificity of the alkaline phosphatase of Bacillus badius TE3592; type: biochemical; conditions: enzyme of Bacillus badius TE3592; for Relative Activity: substrate specificity, p-nitrophenyl phosphate = 100
[2] = test system: alkaline phosphatase of Bacillus badius TE3593; experiment: Substrate specificity of the alkaline phosphatase of Bacillus badius TE3593; type: biochemical; conditions: enzyme of Bacillus badius TE3593; for Relative Activity: substrate specificity, p-nitrophenyl phosphate = 100
[3] = test system: alkaline phosphatase of Bacillus badius TE3597; experiment: Substrate specificity of the alkaline phosphatase of Bacillus badius TE3597; type: biochemical; conditions: enzyme of Bacillus badius TE3597; for Relative Activity: substrate specificity, p-nitrophenyl phosphate = 100
[4] = literature; temperature not given; cited from earlier work
[5] = literature; cited from earlier work

Molecule | Substrate specificity (acts on) [1] | Relative Activity [1] | Substrate specificity (acts on) [2] | Relative Activity [2] | Substrate specificity (acts on) [3] | Relative Activity [3] | Specific activity [4] | Stability (in words) [5]
O=P(O)(O)OC(CO)CO [β-Glycerophosphate] | acts on | 49.7 | acts on | 78.1 | acts on | 67.5 |  | 
O=P(O)(O)OC1O[C@H](CO)[C@@H](O)[C@H](O)[C@H]1O (stereo partly drawn) [Glucose-1-phosphate] |  | 0 |  | 1.44 | acts on | 25.0 |  | 
alkaline phosphatase derived from Escherichia coli: alkaline phosphatase derived from Escherichia coli, used for dephosphorylation in molecular biology |  |  |  |  |  |  | 60 U/mg | good stability

Now from value to molecule, other results behind:

Substrate specificity (acts on) [1] | Relative Activity [1] | Substrate specificity (acts on) [2] | Relative Activity [2] | Substrate specificity (acts on) [3] | Relative Activity [3] | Molecule | Specific activity [4] | Stability (in words) [5]
acts on | 44.4 | acts on | 73.8 | acts on | 67.0 | NCCOP(=O)(O)O [Phosphoethanolamine] |  | 
acts on | 15.4 | acts on | 90.5 | acts on | 15.4 | NC(=O)c1ccc[n+]([C@@H]2O[C@H](COP(=O)([O-])OP(=O)(O)OC[C@H]3O[C@@H](n4cnc5c(N)ncnc54)[C@H](OP(=O)(O)O)[C@@H]3O)[C@@H](O)[C@H]2O)c1 [NADP] |  | 
acts on | 14.8 | acts on | 44.3 | acts on | 34.5 | O=P(O)(O)OC[C@H]1OC(O)[C@H](O)[C@@H](O)[C@@H]1O (stereo partly drawn) [Glucose-6-phosphate] |  | 
acts on | 37.9 | acts on | 71.4 | acts on | 67.0 | O=P(O)(O)OCC(O)CO (racemic) [DL-α-Glycerophosphate] |  | 
